# ChEMBL document CHEMBL1201862, “PubChem BioAssay data set” (2004)
#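 A five-concentration, 48-hour dose response in 96-well plates underlies each endpoint, interpolated linearly between surrounding concentrations. At the GI50, growth is halved.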 The source made the active and inactive calls. No stated cut-off is given here; in the data, active = GI50 up to about 1.1 µM and inactive = higher.
# Assays:
# Test in all cases: NCI anticancer screen, dose series, 48 h
# [1] = test system: SR
# [2] = test system: OVCAR-4
# [3] = test system: MOLT-4
# [4] = test system: TK-10
# [5] = test system: EKVX
# [6] = test system: DMS-273
# [7] = test system: A549
# [8] = test system: HOP-62
# [9] = test system: NCI-H522
# [10] = test system: K562
# [11] = test system: OVCAR-8
# [12] = test system: HOP-92
# [13] = test system: SK-OV-3
# [14] = test system: HCC 2998
# [15] = test system: IGROV-1
# [16] = test system: XF498
# [17] = test system: SN12C
# [18] = test system: HCT-116
# [19] = test system: HOP-18
# [20] = test system: SNB-78
# [21] = test system: SF-268
# [22] = test system: OVCAR-5
# [23] = test system: SK-MEL-28
# [24] = test system: 786-0
# [25] = test system: CAKI-1
# [26] = test system: A498
# [27] = test system: OVCAR-3
# [28] = test system: SNB-19
# [29] = test system: HT-29
# [30] = test system: NCI-H23
# [31] = test system: KM12
# [32] = test system: NCI-H460
# [33] = test system: RXF 631
# [34] = test system: LOX IMVI
# [35] = test system: UACC-257
# [36] = test system: COLO 205
# [37] = test system: CCRF-CEM
# [38] = test system: SK-MEL-2
# [39] = test system: U-251
# [40] = test system: HL-60
# [41] = test system: SF-295
# [42] = test system: SW-620
# [43] = test system: ACHN
# [44] = test system: RXF 393
# [45] = test system: M19-MEL
# [46] = test system: SF-539
# [47] = test system: NCI-H226
# [48] = test system: Malme-3M
# [49] = test system: KM-20L2
# [50] = test system: HCT-15
# [51] = test system: UO-31
# [52] = test system: UACC-62
# [53] = test system: M14
# [54] = test system: SK-MEL-5
# [55] = test system: SNB-75
# [56] = test system: DLD-1
# [57] = test system: LXFL 529
# [58] = test system: RPMI-8226
# [59] = test system: PC-3
# [60] = test system: DU-145
structure (smiles),measurement,setting,value
COC(=O)c1c[nH]cc1CCCCc1c[nH]cc1C(=O)OC,GI50,[1],> 100 µM (inactive)
same,GI50,[2],> 100 µM (inactive)
same,GI50,[3],> 100 µM (inactive)
same,GI50,[4],> 100 µM (inactive)
same,GI50,[5],> 100 µM (inactive)
same,GI50,[6],> 100 µM (inactive)
same,GI50,[7],> 100 µM (inactive)
same,GI50,[8],> 100 µM (inactive)
same,GI50,[9],> 100 µM (inactive)
same,GI50,[10],> 100 µM (inactive)
same,GI50,[11],> 100 µM (inactive)
same,GI50,[12],58.6 µM (inactive)
same,GI50,[13],> 100 µM (inactive)
same,GI50,[14],> 100 µM (inactive)
same,GI50,[15],> 100 µM (inactive)
same,GI50,[16],50 µM (inactive)
same,GI50,[17],> 100 µM (inactive)
same,GI50,[18],> 100 µM (inactive)
same,GI50,[19],> 100 µM (inactive)
same,GI50,[20],> 100 µM (inactive)
same,GI50,[21],> 100 µM (inactive)
same,GI50,[22],> 100 µM (inactive)
same,GI50,[23],> 100 µM (inactive)
same,GI50,[24],89.1 µM (inactive)
same,GI50,[25],> 100 µM (inactive)
same,GI50,[26],> 100 µM (inactive)
same,GI50,[27],> 100 µM (inactive)
same,GI50,[28],> 100 µM (inactive)
same,GI50,[29],> 100 µM (inactive)
same,GI50,[30],> 100 µM (inactive)
same,GI50,[31],> 100 µM (inactive)
same,GI50,[32],> 100 µM (inactive)
same,GI50,[33],> 100 µM (inactive)
same,GI50,[34],> 100 µM (inactive)
same,GI50,[35],> 100 µM (inactive)
same,GI50,[36],> 100 µM (inactive)
same,GI50,[37],> 100 µM (inactive)
same,GI50,[38],> 100 µM (inactive)
same,GI50,[39],> 100 µM (inactive)
same,GI50,[40],73.3 µM (inactive)
same,GI50,[41],73.3 µM (inactive)
same,GI50,[42],> 100 µM (inactive)
same,GI50,[43],> 100 µM (inactive)
same,GI50,[44],> 100 µM (inactive)
same,GI50,[45],> 100 µM (inactive)
same,GI50,[46],> 100 µM (inactive)
same,GI50,[47],> 100 µM (inactive)
same,GI50,[48],> 100 µM (inactive)
same,GI50,[49],> 100 µM (inactive)
Cc1cc(O)c(C(=O)CC2(O)C(=O)Nc3c(Cl)cc(Cl)cc32)c(=O)o1 (stereo not given),GI50,[1],> 100 µM (inactive)
same,GI50,[2],> 100 µM (inactive)
same,GI50,[3],> 100 µM (inactive)
same,GI50,[4],> 100 µM (inactive)
same,GI50,[5],> 100 µM (inactive)
same,GI50,[6],41.7 µM (inactive)
same,GI50,[7],> 100 µM (inactive)
same,GI50,[8],> 100 µM (inactive)
same,GI50,[9],> 100 µM (inactive)
same,GI50,[10],> 100 µM (inactive)
same,GI50,[11],> 100 µM (inactive)
same,GI50,[12],> 100 µM (inactive)
same,GI50,[50],> 100 µM
same,GI50,[13],> 100 µM (inactive)
same,GI50,[14],> 100 µM (inactive)
same,GI50,[15],> 100 µM (inactive)
same,GI50,[16],> 100 µM (inactive)
same,GI50,[17],> 100 µM (inactive)
same,GI50,[18],> 100 µM (inactive)
same,GI50,[19],> 100 µM (inactive)
same,GI50,[20],> 100 µM (inactive)
same,GI50,[21],> 100 µM (inactive)
same,GI50,[22],> 100 µM (inactive)
same,GI50,[23],> 100 µM (inactive)
same,GI50,[24],> 100 µM (inactive)
same,GI50,[25],> 100 µM (inactive)
same,GI50,[26],> 100 µM (inactive)
same,GI50,[27],> 100 µM (inactive)
same,GI50,[28],> 100 µM (inactive)
same,GI50,[29],> 100 µM (inactive)
same,GI50,[51],> 100 µM (inactive)
same,GI50,[30],> 100 µM (inactive)
same,GI50,[52],> 100 µM (inactive)
same,GI50,[53],> 100 µM (inactive)
same,GI50,[31],> 100 µM (inactive)
same,GI50,[54],> 100 µM (inactive)
same,GI50,[32],> 100 µM (inactive)
same,GI50,[33],> 100 µM (inactive)
same,GI50,[35],> 100 µM (inactive)
same,GI50,[36],> 100 µM (inactive)
same,GI50,[55],26.6 µM (inactive)
same,GI50,[56],> 100 µM (inactive)
same,GI50,[37],63 µM (inactive)
same,GI50,[38],> 100 µM (inactive)
same,GI50,[57],> 100 µM (inactive)
same,GI50,[39],> 100 µM (inactive)
same,GI50,[40],> 100 µM (inactive)
same,GI50,[41],> 100 µM (inactive)
same,GI50,[42],52.1 µM (inactive)
same,GI50,[43],> 100 µM (inactive)
same,GI50,[45],46.8 µM (inactive)
same,GI50,[58],55.5 µM (inactive)
same,GI50,[46],61.1 µM (inactive)
same,GI50,[47],88.1 µM (inactive)
same,GI50,[48],> 100 µM (inactive)
same,GI50,[49],> 100 µM (inactive)
COC1=C2CC(C)CC(OC)C(O)C(C)/C=C(\C)C(OC(N)=O)C(OC)/C=C\C=C(/C)C(=O)NC(=C(/C=N/N3CCCCC3)C1=O)C2=O (stereo not given),GI50,[1],2.59 µM (inactive)
same,GI50,[2],5.26 µM (inactive)
same,GI50,[3],2.62 µM (inactive)
same,GI50,[4],27.9 µM (inactive)
same,GI50,[5],8.43 µM (inactive)
same,GI50,[6],13.6 µM (inactive)
same,GI50,[7],21.5 µM (inactive)
same,GI50,[8],18.3 µM (inactive)
same,GI50,[9],2.55 µM (inactive)
same,GI50,[10],5.4 µM (inactive)
same,GI50,[11],3.83 µM (inactive)
same,GI50,[12],15.7 µM (inactive)
same,GI50,[50],12.2 µM
same,GI50,[13],21.9 µM (inactive)
same,GI50,[14],6.7 µM (inactive)
same,GI50,[15],5.5 µM (inactive)
same,GI50,[16],8.95 µM (inactive)
same,GI50,[59],15.3 µM (inactive)
same,GI50,[17],4.5 µM (inactive)
same,GI50,[18],3.25 µM (inactive)
same,GI50,[19],11.9 µM (inactive)
same,GI50,[20],12.4 µM (inactive)
same,GI50,[21],6.18 µM (inactive)
same,GI50,[22],19.4 µM (inactive)
same,GI50,[23],18.7 µM (inactive)
same,GI50,[24],10.2 µM (inactive)
same,GI50,[25],15.7 µM (inactive)
same,GI50,[26],23.9 µM (inactive)
same,GI50,[27],2.15 µM (inactive)
same,GI50,[28],16.1 µM (inactive)
same,GI50,[60],18.3 µM (inactive)
same,GI50,[29],6.55 µM (inactive)
same,GI50,[51],10.8 µM (inactive)
same,GI50,[30],15.8 µM (inactive)
same,GI50,[52],18.6 µM (inactive)
same,GI50,[53],18.7 µM (inactive)
same,GI50,[31],11.6 µM (inactive)
same,GI50,[54],15.8 µM (inactive)
same,GI50,[32],19.5 µM (inactive)
same,GI50,[33],8.28 µM (inactive)
same,GI50,[34],8.55 µM (inactive)
same,GI50,[35],11.9 µM (inactive)
same,GI50,[36],2.93 µM (inactive)
same,GI50,[55],17.8 µM (inactive)
same,GI50,[56],8.47 µM (inactive)
same,GI50,[37],2.55 µM (inactive)
same,GI50,[38],17 µM (inactive)
same,GI50,[57],10 µM (inactive)
same,GI50,[39],6.4 µM (inactive)
same,GI50,[40],1.95 µM (inactive)
same,GI50,[41],13.5 µM (inactive)
same,GI50,[42],2.82 µM (inactive)
same,GI50,[43],15.4 µM (inactive)
same,GI50,[44],5.73 µM (inactive)
same,GI50,[45],7 µM (inactive)
same,GI50,[58],5.55 µM (inactive)
same,GI50,[46],7.33 µM (inactive)
same,GI50,[47],12.4 µM (inactive)
same,GI50,[48],15.2 µM (inactive)
same,GI50,[49],5 µM (inactive)
